Patent US9855245B2, “Methods for improving lipid profiles using atrasentan” (AbbVie Inc., priority 2013, dated 2018)
Counter-ions that a name gives are not always drawn. Like-named read-outs stand apart in the source and are kept apart here. Non-standard residues stand in square brackets, D forms with d. Residues, ends and D or L forms follow the SMILES beside them.

Tests used:
[1] = cited from earlier work
[2] = tested on: subjects with type 2 diabetes and nephropathy; experiment: Example 3: Phase 2b randomized, double-blind, placebo-controlled 8-week study with thoracic bioimpedance; type: in vivo, human; settings: dose of 0.5 mg
From the text: This study also included measurement of thoracic bioimpedance to assess the potential for thoracic fluid retention with atrasentan.
An equal percentage of subjects in all 3 groups experienced an adverse event (81.3%). […] (Table 17).
A mean decrease of 4 ohms in thoracic bioimpedance, as measured by the ZOE® Fluid Status Monitor, is considered clinically indicative of thoracic fluid overload. Mean thoracic bioimpedance fluctuated in all treatment groups over time, with greater mean changes in the 2 atrasentan groups than in the placebo group.

ob-ZSF1 rats = experiment: Example 5: preclinical study of hypotensive synergy, mean arterial pressure; type: in vivo, rat; settings: 10 mg/kg/day for 12 weeks
From the text: In the example, a preclinical animal model is used to evaluate whether atrasentan and an ARB cause a synergistic hypotensive effect.

CC(C)C[C@@H]1NC(=O)[C@@H](C(C)C)NC(=O)[C@@H]2CCCN2C(=O)[C@@H](CC(=O)O)NC(=O)[C@@H](Cc2c[nH]c3ccccc23)NC1=O [BQ-123] (cyclo(L[dW][dD]P[dV]))
mean arterial pressure, mean area under curve +/− SEM ([1]; BQ-123 alone): −2.3 mmHg
mean arterial pressure, mean area under curve +/− SEM ([1]; BQ-123 plus enalapril): −5.1 mmHg

CCCCN(CCCC)C(=O)CN1C[C@H](c2ccc3c(c2)OCO3)[C@@H](C(=O)O)[C@@H]1c1ccc(OC)cc1 [atrasentan HCl]
reduction in UACR [2]: not demonstrated to result in a statistically significant reduction in UACR

CCCCc1nc(Cl)c(CO)n1Cc1ccc(-c2ccccc2-c2nn[nH]n2)cc1 [losartan, reference compound]
mean arterial pressure (MAP) (ob-ZSF1 rats): significant decrease
